Measurements: ChEMBL document CHEMBL1142531, “Discovery and biological profile of 4-(1-aryltriazol-4-yl)-tetrahydropyridines as an orally active new class of metabotropic glutamate receptor 1 antagonist” (Bioorg Med Chem, 2008)
≈ marks a conversion by molar mass, not a printed value. Calls of active or inactive are those of the source. No cut-off for these calls is given here.

How the values were obtained:
[1] = molecular target: Metabotropic glutamate receptor 1 (Homo sapiens, UniProt Q13255); test: Antagonist activity at human mGluR1 expressed in CHO cells assessed as calcium flux by FLIPR assay; assay type: functional, cell-based
Chain of Metabotropic glutamate receptor 1 (Homo sapiens, UniProt Q13255) (Q13255 whole entry): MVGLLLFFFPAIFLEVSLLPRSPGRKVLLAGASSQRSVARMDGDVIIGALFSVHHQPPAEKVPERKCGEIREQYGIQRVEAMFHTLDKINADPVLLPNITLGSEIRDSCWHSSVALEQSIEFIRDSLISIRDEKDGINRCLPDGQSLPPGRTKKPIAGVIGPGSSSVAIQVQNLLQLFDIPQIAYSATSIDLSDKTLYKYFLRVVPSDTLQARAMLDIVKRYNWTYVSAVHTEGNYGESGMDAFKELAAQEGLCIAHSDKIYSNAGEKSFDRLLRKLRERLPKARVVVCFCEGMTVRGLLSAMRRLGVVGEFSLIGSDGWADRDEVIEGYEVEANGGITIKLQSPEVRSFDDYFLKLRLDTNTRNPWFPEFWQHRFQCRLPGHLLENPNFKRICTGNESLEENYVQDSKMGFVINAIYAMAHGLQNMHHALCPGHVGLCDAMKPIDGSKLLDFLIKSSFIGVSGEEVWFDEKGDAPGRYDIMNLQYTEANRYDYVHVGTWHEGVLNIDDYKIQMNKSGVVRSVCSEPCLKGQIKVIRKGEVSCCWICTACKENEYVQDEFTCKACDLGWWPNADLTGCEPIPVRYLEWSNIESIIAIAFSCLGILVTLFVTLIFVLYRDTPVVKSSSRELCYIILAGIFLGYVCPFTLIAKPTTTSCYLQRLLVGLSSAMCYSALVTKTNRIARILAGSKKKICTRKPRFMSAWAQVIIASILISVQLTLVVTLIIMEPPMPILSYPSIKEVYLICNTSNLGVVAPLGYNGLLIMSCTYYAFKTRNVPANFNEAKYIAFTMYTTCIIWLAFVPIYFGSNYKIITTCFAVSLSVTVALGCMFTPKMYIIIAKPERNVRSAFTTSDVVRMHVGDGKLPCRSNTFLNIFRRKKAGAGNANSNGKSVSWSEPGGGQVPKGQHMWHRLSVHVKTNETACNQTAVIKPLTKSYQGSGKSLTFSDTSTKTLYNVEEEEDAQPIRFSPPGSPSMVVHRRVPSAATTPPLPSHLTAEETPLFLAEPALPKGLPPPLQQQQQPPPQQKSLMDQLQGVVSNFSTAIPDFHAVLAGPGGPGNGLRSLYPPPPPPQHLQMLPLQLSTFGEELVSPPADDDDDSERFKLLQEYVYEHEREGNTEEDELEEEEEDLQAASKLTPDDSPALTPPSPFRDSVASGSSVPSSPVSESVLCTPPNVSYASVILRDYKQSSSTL

[2] = molecular target: Metabotropic glutamate receptor 5 (Homo sapiens, UniProt P41594); test: Antagonist activity at human mGluR5 expressed in CHO cells assessed as calcium flux by FLIPR assay; assay type: functional, cell-based
Chain of Metabotropic glutamate receptor 5 (P41594 whole entry): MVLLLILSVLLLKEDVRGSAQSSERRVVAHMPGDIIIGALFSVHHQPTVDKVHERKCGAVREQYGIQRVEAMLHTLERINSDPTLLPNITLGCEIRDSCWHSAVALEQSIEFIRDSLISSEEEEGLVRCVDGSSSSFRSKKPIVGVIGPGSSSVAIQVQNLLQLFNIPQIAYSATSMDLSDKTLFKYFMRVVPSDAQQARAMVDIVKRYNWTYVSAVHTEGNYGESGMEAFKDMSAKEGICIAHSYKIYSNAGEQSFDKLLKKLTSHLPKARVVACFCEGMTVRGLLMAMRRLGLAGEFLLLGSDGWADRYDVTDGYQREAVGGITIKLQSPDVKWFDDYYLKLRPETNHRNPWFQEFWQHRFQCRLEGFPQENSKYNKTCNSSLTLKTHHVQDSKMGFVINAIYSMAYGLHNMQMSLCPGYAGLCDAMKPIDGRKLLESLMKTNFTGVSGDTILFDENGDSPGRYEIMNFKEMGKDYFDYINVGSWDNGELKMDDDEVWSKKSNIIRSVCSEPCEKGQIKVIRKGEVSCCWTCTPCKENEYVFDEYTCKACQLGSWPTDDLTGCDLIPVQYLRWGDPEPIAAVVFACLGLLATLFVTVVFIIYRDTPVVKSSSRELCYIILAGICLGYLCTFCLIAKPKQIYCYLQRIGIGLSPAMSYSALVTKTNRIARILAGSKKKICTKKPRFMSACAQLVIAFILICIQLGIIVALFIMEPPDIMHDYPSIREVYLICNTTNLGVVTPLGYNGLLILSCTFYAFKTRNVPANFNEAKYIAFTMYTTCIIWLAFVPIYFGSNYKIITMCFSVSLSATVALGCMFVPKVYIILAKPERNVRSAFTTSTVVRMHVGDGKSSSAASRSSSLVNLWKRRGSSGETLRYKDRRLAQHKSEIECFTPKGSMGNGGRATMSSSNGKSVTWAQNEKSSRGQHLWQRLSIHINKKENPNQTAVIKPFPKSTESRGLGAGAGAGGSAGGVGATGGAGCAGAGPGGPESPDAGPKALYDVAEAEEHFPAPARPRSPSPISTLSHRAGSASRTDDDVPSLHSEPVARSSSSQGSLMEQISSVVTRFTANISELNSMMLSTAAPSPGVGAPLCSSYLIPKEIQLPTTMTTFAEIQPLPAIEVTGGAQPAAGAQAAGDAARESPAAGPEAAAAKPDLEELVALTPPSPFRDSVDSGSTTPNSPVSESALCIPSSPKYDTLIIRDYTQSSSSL

[3] = molecular target: Metabotropic glutamate receptor 1 (Mus musculus, UniProt P97772); test: Antagonist activity at mouse mGluR1 expressed in CHO cells assessed as calcium flux by FLIPR assay; assay type: functional, cell-based
Chain of Metabotropic glutamate receptor 1 (Mus musculus, UniProt P97772) (P97772 whole entry): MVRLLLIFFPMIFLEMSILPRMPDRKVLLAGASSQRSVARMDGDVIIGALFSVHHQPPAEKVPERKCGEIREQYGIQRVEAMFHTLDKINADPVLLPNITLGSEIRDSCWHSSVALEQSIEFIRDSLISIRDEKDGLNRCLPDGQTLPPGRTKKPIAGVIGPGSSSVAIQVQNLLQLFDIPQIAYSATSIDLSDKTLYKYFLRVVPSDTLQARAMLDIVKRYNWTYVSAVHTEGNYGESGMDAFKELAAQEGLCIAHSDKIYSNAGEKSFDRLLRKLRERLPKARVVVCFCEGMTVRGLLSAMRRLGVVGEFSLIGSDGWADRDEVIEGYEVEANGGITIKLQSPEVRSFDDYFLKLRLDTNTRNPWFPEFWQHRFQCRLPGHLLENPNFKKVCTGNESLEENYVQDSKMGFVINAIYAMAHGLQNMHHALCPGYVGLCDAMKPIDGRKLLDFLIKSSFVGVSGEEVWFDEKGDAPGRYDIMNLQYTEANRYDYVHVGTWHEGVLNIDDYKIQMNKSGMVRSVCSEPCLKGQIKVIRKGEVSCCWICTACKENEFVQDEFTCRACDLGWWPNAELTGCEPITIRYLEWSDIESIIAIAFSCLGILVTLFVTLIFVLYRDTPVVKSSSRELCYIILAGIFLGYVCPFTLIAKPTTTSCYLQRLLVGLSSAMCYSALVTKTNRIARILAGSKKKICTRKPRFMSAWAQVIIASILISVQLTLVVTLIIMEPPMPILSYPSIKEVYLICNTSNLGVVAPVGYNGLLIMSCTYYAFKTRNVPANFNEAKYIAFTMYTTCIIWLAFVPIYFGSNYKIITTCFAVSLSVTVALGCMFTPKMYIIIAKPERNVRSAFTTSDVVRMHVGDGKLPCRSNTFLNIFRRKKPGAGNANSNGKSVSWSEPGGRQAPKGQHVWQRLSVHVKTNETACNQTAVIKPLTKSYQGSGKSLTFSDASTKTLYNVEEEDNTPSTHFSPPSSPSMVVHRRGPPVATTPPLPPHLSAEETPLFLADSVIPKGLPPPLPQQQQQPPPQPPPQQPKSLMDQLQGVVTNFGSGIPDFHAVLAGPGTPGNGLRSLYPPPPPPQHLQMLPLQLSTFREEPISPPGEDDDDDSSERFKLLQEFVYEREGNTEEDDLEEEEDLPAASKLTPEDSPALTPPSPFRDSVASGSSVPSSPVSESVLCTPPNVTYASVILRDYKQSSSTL

Mus musculus [4] = test: Inhibition of (S)-3,5-[…]-induced face washing behavior in mouse administered 30 mins before (S)-3,5-DHPG measured after 5 mins; assay type: functional, organism-based
[5] = Octanol-water partition coefficient, log D at pH 7.4 by shake flask method; assay type: physicochemical
[6] = Oral bioavailability in rat at 3 mg/kg; assay type: ADME, organism-based; conditions: in vivo
[7] = Inhibition of NMDA receptor
[8] = molecular target: Metabotropic glutamate receptor 6 (Homo sapiens) (UniProt O15303); test: Activity at human mGluR6 expressed in CHO cells at 10 uM by [35S]GTPgammaS binding assay; assay type: functional, cell-based
Chain of Metabotropic glutamate receptor 6 (Homo sapiens) (O15303 whole entry): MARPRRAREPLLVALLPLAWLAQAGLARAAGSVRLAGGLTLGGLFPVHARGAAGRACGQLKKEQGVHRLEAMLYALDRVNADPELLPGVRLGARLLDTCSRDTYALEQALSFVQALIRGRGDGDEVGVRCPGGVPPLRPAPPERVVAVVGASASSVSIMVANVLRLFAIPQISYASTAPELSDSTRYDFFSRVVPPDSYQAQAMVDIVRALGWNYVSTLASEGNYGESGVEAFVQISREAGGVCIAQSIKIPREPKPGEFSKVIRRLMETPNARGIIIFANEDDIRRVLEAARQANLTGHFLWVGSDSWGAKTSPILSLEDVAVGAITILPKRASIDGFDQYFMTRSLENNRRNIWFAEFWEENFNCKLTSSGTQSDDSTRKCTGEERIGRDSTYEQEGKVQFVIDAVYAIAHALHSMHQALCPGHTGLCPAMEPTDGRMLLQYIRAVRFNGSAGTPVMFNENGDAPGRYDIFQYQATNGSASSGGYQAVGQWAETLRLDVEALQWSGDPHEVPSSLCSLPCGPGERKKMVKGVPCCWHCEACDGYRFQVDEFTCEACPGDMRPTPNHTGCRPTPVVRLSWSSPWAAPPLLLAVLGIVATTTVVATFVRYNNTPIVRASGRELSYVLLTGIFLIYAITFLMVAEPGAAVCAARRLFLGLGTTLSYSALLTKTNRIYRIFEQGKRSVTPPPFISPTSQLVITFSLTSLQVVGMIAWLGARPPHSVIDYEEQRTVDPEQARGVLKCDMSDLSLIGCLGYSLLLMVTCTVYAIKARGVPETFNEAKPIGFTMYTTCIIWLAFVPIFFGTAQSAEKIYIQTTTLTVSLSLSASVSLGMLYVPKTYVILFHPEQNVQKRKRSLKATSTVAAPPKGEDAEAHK

[9] = Inhibition of AMPA receptor
[10] = Plasma concentration in mouse at 10 mg/kg, po after 30 mins; assay type: ADME, organism-based; set-up: dose 10 mg/kg, route oral
[11] = Metabolic stability in human liver microsomes at 1 uM after 30 mins; assay type: ADME, Microsome; conditions: read-out: Stability
[12] = Metabolic stability in rat liver microsomes at 1 uM after 30 mins; assay type: ADME, Microsome; conditions: read-out: Stability
Mus musculus [13] = test: Brain concentration in mouse at 10 mg/kg, po after 30 mins; assay type: ADME, organism-based; set-up: dose 10 mg/kg, route oral; conditions: in vivo, 0.5 h
[14] = Total plasma clearance in rat at 1 mg/kg, iv; assay type: ADME, organism-based; set-up: dose 1 mg/kg, route intravenous
[15] = molecular target: Metabotropic glutamate receptor 7 (Homo sapiens) (UniProt Q14831); test: Activity at human mGluR7 expressed in CHO cells at 10 uM by [35S]GTPgammaS binding assay; assay type: functional, cell-based
Mus musculus [16] = test: Inhibition of (S)-3,5-[…]-induced face washing behavior in mouse at 10 to 30 mg/kg, ip administered 30 mins before (S)-3,5-DHPG measured after 5 mins; assay type: functional, organism-based
[17] = Inhibition of kainate receptor
[18] = molecular target: Metabotropic glutamate receptor 4 (Homo sapiens) (UniProt Q14833); test: Activity at human mGluR4 expressed in CHO cells at 10 uM by [35S]GTPgammaS binding assay; assay type: functional, cell-based
[19] = molecular target: Metabotropic glutamate receptor 8 (Homo sapiens) (UniProt O00222); test: Activity at human mGluR8 expressed in CHO-K1 cells at 10 uM by [35S]GTPgammaS binding assay; assay type: functional, cell-based
[20] = molecular target: Metabotropic glutamate receptor 2 (Homo sapiens) (UniProt Q14416); test: Activity at human mGluR2 expressed in CHO cells at 10 uM by [35S]GTPgammaS binding assay; assay type: functional, cell-based
[21] = Solubility in water by ultra performance liquid chromatography; assay type: physicochemical
[22] = Half life in rat at 1 mg/kg, iv; assay type: ADME, organism-based; set-up: dose 1 mg/kg, route intravenous; conditions: in vivo
[23] = Metabolic stability in mouse liver microsomes at 1 uM after 30 mins; assay type: ADME, Microsome; conditions: read-out: Stability
Mus musculus [24] = test: Inhibition of (S)-3,5-[…]-induced face washing behavior in mouse at 10 to 30 mg/kg, po administered 30 mins before (S)-3,5-DHPG measured after 5 mins; assay type: functional, organism-based
Mus musculus [25] = test: Inhibition of (S)-3,5-[…]-induced face washing behavior in mouse at 3 to 10 mg/kg, ip administered 30 mins before (S)-3,5-DHPG measured after 5 mins; assay type: functional, organism-based

Compound	IC50 [1] [nM]	IC50 [2] [nM]	IC50 [3] [nM]	logD [5]	other results
COc1ccccc1-n1cc(C2=CCN(C(=O)OC(C)(C)C)CC2)nn1	590	4000	1600		
N[C@H](C(=O)O)c1ccc(C(=O)O)cc1					Activity (Mus musculus [4]): Active
CC(C)(C)OC(=O)N1CC=C(c2cn(-c3ccccc3F)nn2)CC1	6.3	1000	16	> 4	
NC1(C(=O)O)CCc2cc(C(=O)O)ccc21 (racemic)					Activity (Mus musculus [4]): Active
CC(C)(C)CC(=O)N1CC=C(c2cn(-c3ccccc3F)nn2)CC1	120	> 10000	160		
CC(C)(C)NC(=O)N1CC=C(c2cn(-c3ccccc3F)nn2)CC1	57	8600	290	3.2	
Cc1ccccc1-n1cc(C2=CCN(C(=O)OC(C)(C)C)CC2)nn1	11	880	58	> 4	
Cc1c(C2=CCN(C(=O)OC(C)(C)C)CC2)nnn1-c1cccnc1F	7	170	1.5	2.9	remaining at 0.5 h, 1 µM [11]: 90%; remaining at 0.5 h, 1 µM [12]: 70%; Activity (Mus musculus [25]): Active; solubility [21]: 155 µM (≈ 55.7 µg/mL); remaining at 0.5 h, 1 µM [23]: 2%
CC(C)(C)OC(=O)N1CC=C(c2cn(-c3ccc(F)cc3)nn2)CC1	16	1100	31	> 4	
Cc1c(C2=CCN(C(=O)OC(C)C)CC2)nnn1-c1cccnc1F	7.2	40	3.3	2.8	
CC(C)(C)OC(=O)N1CC=C(c2cn(-c3ccncc3)nn2)CC1	220	> 10000	1000		

More lines, main results first:

IC50 [1] [nM]	IC50 [2] [nM]	IC50 [3] [nM]	logD [5]	Compound	other results
18	1100	39	> 4	CC(C)(C)OC(=O)N1CC=C(c2cn(-c3cccc(F)c3)nn2)CC1	
55	8300	180	3	CC(C)(C)OC(=O)N1CC=C(c2cn(-c3cccnc3)nn2)CC1	
	6200	3.1	2.1	Cc1c(C2=CCN(C(=O)N(C)C(C)C)CC2)nnn1-c1cccnc1F	bioavailability [6]: 18%; IC50 [7]: > 10000 nM; Activity [8]: inactive; IC50 [9]: > 10000 nM; concentration at 0.5 h [10]: 210 nM; remaining at 0.5 h, 1 µM [11]: 85%; remaining at 0.5 h, 1 µM [12]: 61%; Drug uptake (Mus musculus [13]): 0.17 nmol/g; clearance [14]: 57 mL/min/kg; Activity [15]: inactive; Activity (Mus musculus [16]): Active; IC50 [17]: > 10000 nM; Activity [18]: inactive; Activity [19]: inactive; Activity [20]: inactive; solubility [21]: > 170 µM; half-life [22]: 12 min; remaining at 0.5 h, 1 µM [23]: 27%; Activity (Mus musculus [24]): Active
2.6	4300	12	3.1	CC(C)(C)OC(=O)N1CC=C(c2cn(-c3cccnc3F)nn2)CC1	
39	3900	180	2.8	CC(C)OC(=O)N1CC=C(c2cn(-c3cccnc3F)nn2)CC1	
49	8700	150	> 4	CC(C)(C)OC(=O)N1CC=C(c2cn(-c3ccccn3)nn2)CC1	
9.8	820	24	> 4	CC(C)(C)OC(=O)N1CC=C(c2cn(-c3ccccc3)nn2)CC1	remaining at 0.5 h, 1 µM [11]: 57%; remaining at 0.5 h, 1 µM [12]: 16%; solubility [21]: 2.4 µM (≈ 0.783 µg/mL)
